Active and inactive are the calls of the source. The rule behind the calls is not given here.
What was measured:
in vitro [1] = conditions: Wistar, rat, liver S9 fractions
[2] = molecular target: T1, Platelet-activating factor acetylhydrolase (Mus musculus) (UniProt Q60963); conditions: Plasma, at 100 nM
T1 sequence (whole entry): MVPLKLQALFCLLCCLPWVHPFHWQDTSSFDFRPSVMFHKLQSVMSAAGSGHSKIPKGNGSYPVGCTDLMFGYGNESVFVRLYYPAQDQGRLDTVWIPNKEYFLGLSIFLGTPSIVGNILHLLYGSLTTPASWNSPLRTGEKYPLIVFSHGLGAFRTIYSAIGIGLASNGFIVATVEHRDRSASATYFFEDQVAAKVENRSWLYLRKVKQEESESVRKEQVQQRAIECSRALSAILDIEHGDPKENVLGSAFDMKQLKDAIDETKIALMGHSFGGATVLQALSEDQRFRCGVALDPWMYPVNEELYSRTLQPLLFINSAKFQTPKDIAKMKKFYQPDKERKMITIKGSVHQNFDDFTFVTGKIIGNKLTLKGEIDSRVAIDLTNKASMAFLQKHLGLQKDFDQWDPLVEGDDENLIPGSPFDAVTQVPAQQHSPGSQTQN

in vitro [3] = conditions: human, liver S9 fractions
in vitro [4] = conditions: human, liver S9 fractions; remark: listed apart in the source
[5] = molecular target: T1, Platelet-activating factor acetylhydrolase (Mus musculus); conditions: Plasma, at 1 µM
Description: Inhibition of Lp-PLA2 in mouse plasma at 1 uM using 2-thio-PAF substrate after 10 mins

in vitro [6] = conditions: Wistar, rat, liver S9 fractions; remark: listed apart in the source
Rattus norvegicus [7] = organism: Rattus norvegicus; conditions: Sprague-Dawley, Plasma, 10 nM
Description: Inhibition of Lp-PLA2 in Sprague-Dawley rat plasma at 10 nM using 2-thio-PAF substrate after 10 mins

in vivo [8] = conditions: Sprague-Dawley, rat, po, 25 mg/kg
Description: Terminal half life in Sprague-Dawley rat at 25 mg/kg, po after 48 hrs by LC-MS method

in vivo [9] = conditions: Sprague-Dawley, rat, po, 25 mg/kg; remark: listed apart in the source
Description: AUC (0 to infinity) in Sprague-Dawley rat at 25 mg/kg, po after 48 hrs by LC-MS method

in vivo [10] = conditions: Sprague-Dawley, rat, po, 25 mg/kg; remark: listed apart in the source
Description: Cmax in Sprague-Dawley rat at 25 mg/kg, po after 48 hrs by LC-MS method

Rattus norvegicus [11] = assay: In vivo inhibition of Lp-PLA2 in Sprague-Dawley rat at 25 mg/kg, po after 5 hrs; type: functional
Rattus norvegicus [12] = organism: Rattus norvegicus; conditions: Sprague-Dawley, 25 mg/kg
Description: In vivo inhibition of Lp-PLA2 in Sprague-Dawley rat at 25 mg/kg, po measured over 24 hrs

[13] = Cmax in Sprague-Dawley rat at 50 mg/kg, po after 48 hrs by LC-MS method; type: ADME, organism-based; set-up: dose 50 mg/kg, route oral; conditions: in vivo
[14] = AUC (0 to infinity) in Sprague-Dawley rat at 50 mg/kg, po after 48 hrs by LC-MS method; type: ADME, organism-based; set-up: dose 50 mg/kg, route oral, time infinity; conditions: in vivo
[15] = Terminal half life in Sprague-Dawley rat at 50 mg/kg, po after 48 hrs by LC-MS method; type: ADME, organism-based; conditions: in vivo, read-out: beta t1/2 (converted)

Compound | half-life at 0.1 µM (in vitro [1]) [h] | inhibition [2] [%] | CLint scaled at 0.1 µM (in vitro [3]) [mL/min/kg] | half-life at 0.1 µM (in vitro [4]) [h] | inhibition [5] [%] | CLint scaled at 0.1 µM (in vitro [6]) [mL/min/kg] | inhibition (Rattus norvegicus [7]) [%] | half-life at 48 h (in vivo [8]) [h] | AUC(0-inf) at 48 h (in vivo [9]) [ng·h/mL] | Cmax at 48 h (in vivo [10]) [ng/mL] | inhibition in vivo at 25 mg/kg (Rattus norvegicus [11]) [%] | inhibition (Rattus norvegicus [12]) | Cmax [13] [ng/mL] | AUC(0-inf) [14] [ng·h/mL] | half-life [15] [h]
FC(F)(F)c1cc(Oc2ccc(CCOc3ccn4c(-c5cncnc5)cnc4n3)cc2)ccc1Cl | 1.83 | 2 | 55.1 | 0.7 | 53 | 34.3 | – | – | – | – | – | – | – | – | –
Cn1cc(-c2cnc3nc(OCc4ccc(Oc5ccc(Cl)c(C(F)(F)F)c5)cc4)ccn23)cn1 | – | – | – | 3 | 28 | – | 13 | – | – | – | – | – | – | – | –
N#Cc1cc(COc2ccn3c(-c4cncnc4)cnc3n2)ccc1Oc1ccc(Cl)c(C(F)(F)F)c1 | 0.667 | – | – | 1.77 | 0 | – | 14 | 3.24 | 16100 | 1400 | – | – | – | – | –
FC(F)(F)c1cc(Oc2ccc(COc3ccn4c(-c5cncnc5)cnc4n3)cc2)ccc1Cl | 5.8 | 10 | – | 1.93 | 56 | – | 10 | 9.44 | 88000 | 3520 | 75 | Active | – | – | –
CCN(CC)CCN(Cc1ccc(-c2ccc(C(F)(F)F)cc2)cc1)C(=O)Cn1c(SCc2ccc(F)cc2)nc(=O)c2c1CCC2 [DARAPLADIB] | – | 96 | – | – | 99 | – | – | – | – | – | – | – | 150 | 2110 | 11.5
Fc1cc(COc2ccn3c(-c4cncnc4)cnc3n2)cc(F)c1Oc1ccc(Cl)c(C(F)(F)F)c1 | 3.27 | – | – | 3.53 | 8 | – | – | – | – | – | – | – | – | – | –
Fc1cc(COc2ccn3c(-c4cncnc4)cnc3n2)ccc1Oc1ccc(Cl)c(C(F)(F)F)c1 | 2.82 | – | – | 5.52 | 13 | – | 11 | 13.3 | 78100 | 2600 | 75 | Active | – | – | –
